“And” between values parts separate entries of the source, which are not always exact repeats. Equal values may be shown once.
Tests used:
patients with PD = experiment: Phase 2 trial Stage 2: CNS symptoms (UPDRS, MMSE, BDI-II, PDHQ, hallucinations); type: in vivo, human
Source text: (8) Beck Depression Inventory (BDI-II);
(9) Unified Parkinson's Disease Rating Scale (UPDRS), which consists of 42 items in four subscales (Part I=Non-Motor Aspects of Experiences of Daily Living (nM-EDL) (1.1 cognitive impairment, 1.2 hallucinations and psychosis, 1.3 depressed mood, Part II=Motor Aspects of Experiences of Daily Living (M-EDL), Part III=Motor Examination, and Part IV=Motor Complications;
(10) Mini Mental State Examination (MMSE);
(12) The University of Miami Parkinson's Disease Hallucinations Questionnaire (UM-PDHQ);
Exploratory end-points, in addition to constipation, included for example, (i) depression assessed using the Beck Depression Inventory (BDI-II) (Steer et al. 2000) and Unified Parkinson's Disease Rating Scale (UPDRS); (ii) cognition assessed using the Mini Mental State Examination (MMSE) (Palsteia et al. 2018), Unified Parkinson's Disease Rating Scale (UPDRS), and Trail Making Test (TMT); (iii) sleep and REM-behavior disorder (RBD) using a daily sleep diary, I-Button Temperature Assessment, a REM sleep behavior disorder (RBD) questionnaire (RBDQ) (Stiasny-Kolster et al. 2007), and the UPDRS; (iv) hallucinations assessed using the PD hallucinations questionnaire (PDHQ) (Papapetropoulos et al. 2008), the UPDRS, and direct questioning; (v) fatigue using the Parkinson's Disease Fatigue Scale (PFS-16) and the UPDRS; (vi) motor functions using the UPDRS; and (vii) non-motor functions using the UPDRS.
Assessments were made at baseline and at the end of the fixed dose and washout periods. Circadian system status was evaluated by continuously monitoring wrist skin temperature (Thermochron iButton DS1921H; Maxim, Dallas) following published procedures (Sarabia et al. 2008).
CNS Symptoms in Stage 2: An exploratory analysis was done with respect to the sleep data, the body temperature data, mood, fatigue, hallucinations, cognition and other motor and non-motor symptoms of PD. Continuous measurements within a subject were compared with a paired t-test and continuous measurements between subject groups were compared with a two-group t-test. Categorical data were compared with a chi-squared test or a Fisher's exact test if the expected cell counts are too small for a chi-squared test.
CNS symptoms: CNS symptoms were evaluated at baseline and at the end of the fixed dose period and the wash-out period (Table 16). Total UPDRS score was 64.4 at baseline, 60.6 at the end of the fixed dose period and 55.7 at the end of the wash-out period (p=0.002); similarly, the motor component of the UPDRS improved from 35.3 at baseline to 33.3 at the end of fixed dose to 30.2 at the end of wash-out (p=0.006). MMSE improved from 28.4 at baseline to 28.7 during treatment and to 29.3 during wash-out (p=0.0006). […] PDHQ improved from 1.3 at baseline to 1.8 during treatment and 0.9 during wash-out (p=0.03). Hallucinations were reported by 5 patients at baseline and delusions in 1 patient. […] The frequency of arm or leg thrashing reported in the sleep diary diminished progressively from 2.2 episodes/week at baseline to 0 at maximal dose. […] Unlike stool-related indices, the improvement in many CNS symptoms persisted during wash-out.

[1] = system: mice with constipation due to overexpression of human αS; experiment: Oral squalamine in mice with constipation due to overexpression of human αS; type: in vivo, mouse; conditions: orally administered (West et al, manuscript in preparation)
[2] = Duration of the aminosterol-induced response after a single oral dose; type: in vivo, human; conditions: single 200 mg oral dose
Source text: The invention is also based on the discovery of unexpected and unprecedented activity of orally or nasally administered squalamine and related aminosterols (e.g., aminosterol 1436). The activity relates to stimulating a sequence of events within the human GI tract with therapeutic value. With respect to this activity, the sequence of events stimulated by an aminosterol such as squalamine or aminosterol 1436 involves the induction of an intestinal secretory response followed by a period of “small intestinal quieting,” and the subsequent passage of a normally formed bowel movement. These events are best explained as a consequence of the stimulation of a heretofore unknown physiological gastrointestinal response, in this invention shown to be controlled or initiated by an effective oral dose of an aminosterol such as squalamine or the related aminosterol, 1436 (Aminosterol-Induced GI Response). The activity relates to stimulating the neural connections between the enteric nervous system and the brain with therapeutic value, which can thereby impact sleeping disorders, sleeping disturbances, or related symptoms, as described herein. With respect to this activity, the sequence of events stimulated by an aminosterol involves the entrainment of the circadian clock, the suprachiasmatic nucleus, and an improvement in the quality of sleep. […]

For `CC(C)[C@@H](CC[C@@H](C)[C@H]1CC[C@H]2[C@@H]3[C@H](O)C[C@H]4C[C@@H](NCCCNCCCCN)CC[C@]4(C)[C@H]3CC[C@]12C)OS(=O)(=O)O` (single isomer, unassigned; ent-01) [ENT-01], the “PDHQ, Fixed dose (Mean, SD)” value (patients with PD; Stage 2, end of fixed dose period, baseline 1.3 (2.99)) was 1.8, the “BDI-II, Fixed dose (Mean, SD)” value (patients with PD; Stage 2, end of fixed dose period, baseline 10.9 (7.12)) was 9.9 and the “UPDRS Part 1 (NMS), Fixed dose (Mean, SD)” value (patients with PD; Stage 2, end of fixed dose period, baseline 11.6 (6.51)) was 10.6. The “UPDRS Part 2 (Daily living), Fixed dose (Mean, SD)” value (patients with PD; Stage 2, end of fixed dose period, baseline 14.9 (8.11)) was 14.7, the “MMSE, Fixed dose (Mean, SD)” value (patients with PD; Stage 2, end of fixed dose period, baseline 28.4 (1.75)) was 28.7 and the “UPDRS Part 3 (Motor), Fixed dose (Mean, SD)” value (patients with PD; Stage 2, end of fixed dose period, baseline 35.3 (14.35)) was 33.3. The “UPDRS Total, Fixed dose (Mean, SD)” value (patients with PD; Stage 2, end of fixed dose period, baseline 64.4 (23.72)) was 60.6, the “PDHQ, Wash-out (Mean, SD)” value (patients with PD; Stage 2, end of wash-out period, baseline 1.3 (2.99)) was 0.9 (2.33) and the “BDI-II, Wash-out (Mean, SD)” value (patients with PD; Stage 2, end of wash-out period, baseline 10.9 (7.12)) was 8.7 (5.19). The “UPDRS Part 1 (NMS), Wash-out (Mean, SD)” value (patients with PD; Stage 2, end of wash-out period, baseline 11.6 (6.51)) was 9.5 (5.27), the “UPDRS Part 2 (Daily living), Wash-out (Mean, SD)” value (patients with PD; Stage 2, end of wash-out period, baseline 14.9 (8.11)) was 14.1 (8.21) and the “MMSE, Wash-out (Mean, SD)” value (patients with PD; Stage 2, end of wash-out period, baseline 28.4 (1.75)) was 29.3 (1.06). For the same compound, the “UPDRS Part 3 (Motor), Wash-out (Mean, SD)” value (patients with PD; Stage 2, end of wash-out period, baseline 35.3 (14.35)) was 30.2 (13.23), the “UPDRS Total, Wash-out (Mean, SD)” value (patients with PD; Stage 2, end of wash-out period, baseline 64.4 (23.72)) was 55.7 (23.69) and the “hallucinations in one patient” value (patients with PD; at 100 mg (prokinetic dose of this patient 175 mg)) was “disappeared”. For the same compound, the BDI-II (patients with PD; at wash-out) was 8.7, the “patients in whom hallucinations and delusions improved or disappeared” value (patients with PD; during treatment) was 5 of 6 and the PDHQ (patients with PD; during treatment, baseline 1.3) was 1.8. For the same compound, the BDI-II (patients with PD; during treatment, baseline 10.9) was 9.9, the MMSE (patients with PD; during treatment, baseline 28.4) was 28.7 and the MMSE (patients with PD; during wash-out) was 29.3. For the same compound, the PDHQ (patients with PD; during wash-out) was 0.9, the “motor component of the UPDRS” value (patients with PD; end of fixed dose, baseline 35.3) was 33.3 and the “Total UPDRS score” value (patients with PD; end of the fixed dose period, baseline 64.4) was 60.6. For the same compound, the “Total UPDRS score” value (patients with PD; end of the wash-out period) was 55.7, the “motor component of the UPDRS” value (patients with PD; end of wash-out) was 30.2 and the “time free of hallucinations following cessation of dosing” value (patients with PD; one patient) was 1 month. The “time without return of hallucinations/delusions following discontinuation” value (patients with PD; single patients) was 4 weeks and 2 weeks.
In the case of `CC(C)[C@@H](CC[C@@H](C)[C@H]1CC[C@H]2[C@@H]3[C@H](O)C[C@H]4C[C@@H](NCCCNCCCCN)CC[C@]4(C)[C@H]3CC[C@]12C)OS(=O)(=O)O` [squalamine], the gastro-intestinal motility [1] is reported as “stimulates gastro-intestinal motility” and the “duration of the aminosterol-induced response” value [2] is reported as “about 4 days”.

From US11083735B2, “Methods for treating sleep disorders, sleep disturbances, and related symptoms using aminosterol compositions” (Enterin, Inc., priority 2017, dated 2021)
